Laboratory results from patent publication US9816103B2, “Methods of enhancing the resistance of plants to bacterial pathogens” (priority 2008, dated 2017).
No end group written: not given here.

Columns and labels:
wild-type Nb [1] = test: Oxidative burst, luminol-based assay, wild-type Nb leaf discs; format: cell-based, Nicotiana benthamiana; conditions: 100 nM peptide
Procedure: (§1) To measure the production of reactive oxygen species (ROS) in leaf tissue, size #1 leaf discs (Nb; n=12, tomato; n=8) were floated overnight in water. Each disc was then transferred to a well containing an assay mix of luminol (200 μM) and peroxidase (20 μg/ml) in 100 μl water. Each well was then treated with either: assay mix, 100 nm elf18, or 100 nm flg22. Luminescence in a 96-well plate was subsequently measured using a Flash Varioskan luminometer.

EFR Nb = test: Callose deposition, aniline blue staining, EFR Nb leaves; format: in vivo, Nicotiana benthamiana; conditions: 100 nM peptide infiltrated, ~16 hours, data not shown
Procedure: A solution of either water, 100 nM elf18, or 100 nM flg22 was used to infiltrate leaves of 4-week old wild-type and EFR Nb. Size #3 leaf discs (n=8) were sampled after ˜16 hours and destained in methanol overnight. Discs were rinsed in water, then left to stain overnight in a solution of 0.05% aniline blue in 50 mM phosphate buffer pH 8.5. Callose deposition at the plant cell periphery could then be viewed under a fluorescence microscope.

Wild-type Nb plants = test: Seedling growth inhibition (fresh weight), wild-type Nb; format: in vivo, Nicotiana benthamiana; conditions: 0.1-1000 nM peptide, one week
Procedure: (§2) Wild-type, #16 and #18 Nb as well as Col and efr Arabidopsis thaliana seedlings were grown for one week onMS 1% sucrose agar plates, then transferred to liquid culture and were grown for one week in a serial dilution or elf18 or flg22. Dilutions of 0.1, 1, 10, 100 and 1000 nM were used for all five plant lines. Seedlings (n=4) were blotted on absorbent paper and their fresh weight was measured.

EFR (#18) Nb plants = test: Oxidative burst, luminol-based assay, EFR transgenic Nb leaf discs; format: cell-based, Nicotiana benthamiana; conditions: 100 nM peptide
Procedure: as §1

[2] = tested on: transgenic EFR potatoes (Desiree); test: Oxidative burst, luminol-based assay, transgenic EFR potatoes; format: cell-based, Solanum tuberosum; conditions: 100 nm peptide; positive potato lines; data not shown
Procedure: as §1, with “tomato and potato;” for “tomato;”
Oxidative burst assays were also conducted with transgenic EFR potatoes (Desiree).

EFR plants (#18 Nb) = test: Early and late defense marker gene expression by RT-PCR, EFR Nb seedlings; format: in vivo, Nicotiana benthamiana; conditions: 100 nM peptide, 0, 30, 60, 180 min
Procedure: (§3) Wild-type and #18 Nb were grown for one week on agar plates, then transferred to liquid culture and were grown for a further week. The expression of PAMP-induced genes was monitored over a time course. Seedlings were treated with 100 nM elf18 or flg22 for 0, 30, 60 or 180 minutes, and frozen in liquid nitrogen.
(§4) In brief: four elicited seedlings were thoroughly ground directly in the supplied extraction buffer in Eppendorf tubes using a pestle on an IKA RW 20 stirrer. Total RNAs were extracted using the Qiagen Rneasy Plant Mini kit. The quality of the extracted RNA was confirmed by running an ethidium bromide-stained agarose gel to reveal rRNAs. DNase treatment was performed using TURBO DNA-free kit (Ambion) and the concentration of total RNA was then measured using a Nanodrop. First strand cDNA synthesis was performed using SuperScript II Reverse Transcriptase (Invitrogen) in combination with Oligo(dT) prime on 2 μg of total RNA. One μl of cDNA was used in PCR under the following conditions: 95° C. 2 min; [95° C. 45 sec; 58° C. 45 sec; 55° C. 30 sec; 72° C. 1.5 min]×25; 72° C. 5 min. The genes used as defense markers were: CYP72D2 (cytochrome P450), FLS2 (receptor kinase for flg22), ACRE132 (putative RING finger protein) and WRKY22 (transcription factor). As loading control the constitutively expressed EF-1α housekeeping gene was also amplified.

efr plants = test: Seedling growth inhibition (fresh weight), Arabidopsis efr; format: in vivo, Arabidopsis thaliana; conditions: 0.1-1000 nM peptide, one week
Procedure: as §2

wild-type Nb [3] = test: Early and late defense marker gene expression by RT-PCR, wild-type Nb seedlings; format: in vivo, Nicotiana benthamiana; conditions: 100 nM peptide, 0, 30, 60, 180 min
Procedure: as §3, §4

[4] = tested on: primary transformant tomato plants; test: Oxidative burst, luminol-based assay, AtEFR tomato primary transformants; format: cell-based, Solanum lycopersicum; conditions: 100 nm peptide; ten positive tomato lines; data not shown
Procedure: as §1, with “tomato and potato;” for “tomato;”
The detection of an oxidative burst is a relatively simple and reliable assay for defense activation. Cumulative luminescence was recorded for each plant over a time course of 40 minutes. […] Several other transformants were unable to express functional AtEFR as they give very little response to elf18, yet are able to respond to flg22 elicitation (data not shown). Other transformants, perhaps due to old age, were unable to respond to elf18 or flg22 treatment (data not shown). The 10 positive lines appear to have acquired EF-Tu responsiveness in this assay. Therefore seeds were harvested to grow homozygous lines for use in further assays to confirm of these initial results.

Wild-type Col plants = test: Seedling growth inhibition (fresh weight), Arabidopsis wild-type Col; format: in vivo, Arabidopsis thaliana; conditions: 0.1-1000 nM peptide, one week
Procedure: as §2

[5] = tested on: EFR plants (Nb expressing transgenic AtEFR); test: Seedling growth inhibition (fresh weight), EFR Nb; format: in vivo, Nicotiana benthamiana; conditions: 0.1-1000 nM peptide, one week
Procedure: as §2

[6] = tested on: wild-type leaves of Arabidopsis thaliana Col-0; test: Oxidative burst induced by elf18 peptides from phytopathogenic bacteria; format: cell-based; conditions: Col-0 leaves; relative to E. coli elf18 positive control

Substance	release of reactive oxygen species (luminescence) (wild-type Nb [1])	callose deposition (EFR Nb)	seedling growth inhibition (fresh weight) (Wild-type Nb plants)	release of reactive oxygen species (luminescence) (EFR (#18) Nb plants)	burst of ROS [2]	defense marker gene induction (EFR plants (#18 Nb))	seedling growth inhibition (fresh weight) (efr plants)	defense marker gene induction (wild-type Nb [3])	burst of ROS (cumulative luminescence over 40 minutes) [4]	seedling growth inhibition (fresh weight) (Wild-type Col plants)	seedling growth inhibition (fresh weight) [5]	eliciting activity (oxidative burst) [6]
elf18: EF-Tu epitope elf18: region of 18 amino-acids at the N-acetylated terminus of eubacterial EF-Tu recognized by EFR (Ac-MARAKFLREKLHVNVGTI)	never revealed a burst of ROS	stronger response	able to grow in the presence of up to 1000 nM elf18	peak of luminescence corresponding to a burst of ROS	considerable burst of ROS	marker gene expression which is at least as strong as under flg22 treatment	insensitive	unable to elicit a significant amount of expression	considerable burst of ROS	decreasing growth as elf18 concentration increases	responsive	–
elf18 Pseudomonas syringae pv. syringae DC3000: synthetic elf18 peptide derived from EF-Tu of Pseudomonas syringae DC3000 (pv. tomato per b37) (MAKEKFDRSLPHCNVGTI; ends and bridges not checked)	–	–	–	–	–	–	–	–	–	–	–	very low eliciting activity
elf18 Xanthomonas campestris pv campestris 8004 and B100: synthetic elf18 peptide derived from EF-Tu of Xanthomonas campestris pv. campestris 8004 and B100 (MARAKFLREKLHVNVGTI; Xanthomonas campestris pv. campestris 8004)	–	–	–	–	–	–	–	–	–	–	–	very low eliciting activity
